Converted amounts (≈) assume the structure as drawn. Like-named read-outs stand apart in the source and are kept apart here.
How the values were obtained:
[1] = tested on: Proteus vulgaris XI9H ATCC 881; test: MIC, two-fold dilution microtiter, P. vulgaris; type: cell-based; conditions: Proteus vulgaris, ATCC881
[2] = tested on: S. pneumoniae UC 41; test: MIC, two-fold dilution microtiter, S. pneumoniae UC 41; type: cell-based; conditions: Streptococcus pneumoniae, UC41, Todd-Hewitt broth, 18-24 h, 37° C, read-out: MIC
[3] = tested on: Escherichia coli SKF 12140; test: MIC, two-fold dilution microtiter, E. coli SKF 12140; type: cell-based; conditions: Escherichia coli, SKF12140, Iso-Sensitest broth, 18-24 h, 37° C, read-out: MIC
[4] = tested on: Staphylococcus aureus ATCC 6538; test: MIC, two-fold dilution microtiter, S. aureus ATCC 6538; type: cell-based; conditions: Staphylococcus aureus, ATCC6538
[5] = tested on: Klebsiella pneumoniae ISM; test: MIC, two-fold dilution microtiter, K. pneumoniae ISM; type: cell-based; conditions: Klebsiella pneumoniae
[6] = tested on: S. faecalis ATCC 7080; test: MIC, two-fold dilution microtiter, S. faecalis ATCC 7080; type: cell-based; conditions: Enterococcus faecalis, ATCC7080, 18-24 h, 37° C, read-out: MIC
[7] = tested on: S. aureus tour L 165; test: experimental septicemia in mice (S. aureus); type: in vivo; conditions: Staphylococcus aureus, once daily for three days, survival on 10th day
Procedure: The antimicrobial activity of the compounds of the invention is also confirmed in "in vivo" tests. The animals (groups of five mice) were infected by intraperitoneal injection of 16-hour broth culture of S. aureus tour L 165. Inocula were adjusted so that untreated animals died of septicemia within 48 hours. Animals were treated once daily for three days starting immediately after infection. On the 10th day the value for the ED50 in mg/kg/day was calculated by the method of […]-KARBER (Finney, D. J., Statistical method in biological assay, page 524. C. Griffin Ltd., London, 1952), on the basis of the percentage of surviving animals at each dose.

[8] = tested on: Pseudomonas aeruginosa ATCC 10145; test: MIC, two-fold dilution microtiter, P. aeruginosa ATCC 10145; type: cell-based; conditions: Pseudomonas aeruginosa, ATCC10145
[9] = tested on: Streptococcus pyogenes C203; test: MIC, two-fold dilution microtiter, S. pyogenes C203; type: cell-based; conditions: Streptococcus pyogenes, Todd-Hewitt broth, 18-24 h, 37° C, read-out: MIC
Procedure: (§1) The minimum inhibitory concentration (MIC) of representative compounds of the invention was determined using two-fold dilution method in microtiter system. The media used were: Todd-Hewitt broth (Difco) for steptococci; Iso-Sensitest broth (Oxoid) for staphylococci and gram-negative bacteria. The final inoculum was about 10^4 cfμ/ml. […] For M. tuberculosis H37 RV the inoculum consisted of 0.5-1% of a 7-9 day culture in Dubos medium. The tests were carried out in Kirschner medium supplemented with 10% horse serum. Observations were made after 7-days incubation at 37° C.

[10] = tested on: Mycobacterium tuberculosis H37RV ATCC 9360; test: MIC, M. tuberculosis H37RV, Kirschner medium; type: cell-based; conditions: Mycobacterium tuberculosis, 168 h, 10% horse serum, 7 days, 37° C, read-out: MIC
Procedure: as §1

[11] = tested on: S. aureus TOUR L 1282; test: MIC, two-fold dilution microtiter, rifampicin resistant S. aureus TOUR L 1282; type: cell-based; conditions: Staphylococcus aureus, TOURL1282, rifampicin resistant strain
[12] = tested on: S. aureus TOUR L 165; test: MIC, two-fold dilution microtiter, S. aureus TOUR L 165; type: cell-based, Staphylococcus aureus
[13] = P. vulgaris XI9H ATCC 881, Iso-Sensitest broth, 18-24 h, 37° C, read-out: MIC
[14] = S. aureus ATCC 6538, Iso-Sensitest broth, 18-24 h, 37° C, read-out: MIC
[15] = K. pneumoniae ISM, Iso-Sensitest broth, 18-24 h, 37° C, read-out: MIC
[16] = P. aeruginosa ATCC 10145, Iso-Sensitest broth, 18-24 h, 37° C, read-out: MIC
[17] = Staphylococcus aureus, TOURL165, S. aureus TOUR L 165, Iso-Sensitest broth, 18-24 h, 37° C, read-out: MIC
[18] = Staphylococcus aureus, TOURL165, S. aureus TOUR L 165, supplemented with 30% bovine serum, read-out: MIC

SMILES	MIC [1, 13]	MIC [2]	MIC [3]	MIC [4, 14]	MIC [5, 15]	MIC [6]	ED50 ([7]; TOURL165, 240 h, sc)	ED50 ([7]; TOURL165, po, 240 h, os)	MIC [8, 16]	MIC [9]	MIC [10]	MIC [11]	MIC [12, 17]	MIC [12, 18]	MIC [1]	MIC [5]	MIC [8]	MIC [4]	MIC ([12]; S. aureus TOUR L 165, supplemented with 30% bovine serum)	MIC ([12]; Staphylococcus aureus, TOURL165)
COC1C=COC2(C)Oc3c(C)c(O)c4c(O)c(c5sc(N6CCN(C)CC6)nc5c4c3C2=O)NC(=O)C(C)=CC=CC(C)C(O)C(C)C(O)C(C)C(OC(C)=O)C1C (centres unmarked) [Example 3a, 2'-(4"-Methyl-1"-piperazinyl) rifamycin P]	8 µg/mL (≈ 9.56 µM)	0.032 µg/mL (≈ 0.0382 µM)	16 µg/mL (≈ 19.1 µM)	1 ng/mL (≈ 0.00119 µM)	32 µg/mL (≈ 38.2 µM)	2 µg/mL (≈ 2.39 µM)	0.16 mg/kg	0.36 mg/kg	16 µg/mL (≈ 19.1 µM)	0.032 µg/mL (≈ 0.0382 µM)	1 µg/mL (≈ 1.19 µM)	32 µg/mL (≈ 38.2 µM)	0.004 µg/mL (≈ 0.00478 µM)	0.004 µg/mL (≈ 0.00478 µM)						
COC1C=COC2(C)Oc3c(C)c(O)c4c(O)c(c5sc(N6CCCCC6)nc5c4c3C2=O)NC(=O)C(C)=CC=CC(C)C(O)C(C)C(O)C(C)C(OC(C)=O)C1C (centres unmarked) [Example 2, 2'-(1"-Piperidinyl) rifamycin P]	6.25 µg/mL (≈ 7.6 µM)	0.05 µg/mL (≈ 0.0608 µM)	12.5 µg/mL (≈ 15.2 µM)	3 ng/mL (≈ 0.00365 µM)	25 µg/mL (≈ 30.4 µM)	1.6 µg/mL (≈ 1.95 µM)	0.16 mg/kg	0.63 mg/kg	6.25 µg/mL (≈ 7.6 µM)	0.05 µg/mL (≈ 0.0608 µM)	0.2 µg/mL (≈ 0.243 µM)	> 100 µg/mL	0.006 µg/mL (≈ 0.0073 µM)	0.2 µg/mL (≈ 0.243 µM)						
COC1C=COC2(C)Oc3c(C)c(O)c4c(O)c(c5sc(N6CCCC6)nc5c4c3C2=O)NC(=O)C(C)=CC=CC(C)C(O)C(C)C(O)C(C)C(OC(C)=O)C1C (centres unmarked) [Example 1a, 2'-(1"-PyrrolidinyL) rifamycin P]	16 µg/mL (≈ 19.8 µM)	0.032 µg/mL (≈ 0.0396 µM)	16 µg/mL (≈ 19.8 µM)	16 ng/mL (≈ 0.0198 µM)	32 µg/mL (≈ 39.6 µM)	2 µg/mL (≈ 2.48 µM)			8 µg/mL (≈ 9.9 µM)	0.008 µg/mL (≈ 0.0099 µM)	2 µg/mL (≈ 2.48 µM)	> 128 µg/mL	0.004 µg/mL (≈ 0.00495 µM)	0.016 µg/mL (≈ 0.0198 µM)						
COC1C=COC2(C)Oc3c(C)c(O)c4c(O)c(c5sc(N6CCN(c7ccc(Cl)cc7)CC6)nc5c4c3C2=O)NC(=O)C(C)=CC=CC(C)C(O)C(C)C(O)C(C)C(OC(C)=O)C1C (centres unmarked) [Example 3d, 2'-[4"(4'"-chlorophenyl)-1-piperazinyl]rifamycin P]		0.125 µg/mL (≈ 0.134 µM)	1 µg/mL (≈ 1.07 µM)	64 ng/mL (≈ 0.0686 µM)		2 µg/mL (≈ 2.14 µM)	3.3 mg/kg	3.3 mg/kg		0.064 µg/mL (≈ 0.0686 µM)	1 µg/mL (≈ 1.07 µM)	> 128 µg/mL	0.064 µg/mL (≈ 0.0686 µM)	0.25 µg/mL (≈ 0.268 µM)	> 128 µg/mL	> 128 µg/mL	128 µg/mL (≈ 137 µM)			
COC1C=COC2(C)Oc3c(C)c(O)c4c(O)c(c5sc(N6CCNCC6)nc5c4c3C2=O)NC(=O)C(C)=CC=CC(C)C(O)C(C)C(O)C(C)C(OC(C)=O)C1C (centres unmarked) [Example 4, 2'-(1"-Piperazinyl) rifamycin P]	8 µg/mL (≈ 9.72 µM)	0.064 µg/mL (≈ 0.0778 µM)	8 µg/mL (≈ 9.72 µM)		16 µg/mL (≈ 19.4 µM)	2 µg/mL (≈ 2.43 µM)			16 µg/mL (≈ 19.4 µM)	0.125 µg/mL (≈ 0.152 µM)		> 128 µg/mL						125 ng/mL (≈ 0.152 µM)	0.125 µg/mL (≈ 0.152 µM)	0.125 µg/mL (≈ 0.152 µM)
COC1C=COC2(C)Oc3c(C)c(O)c4c(O)c(c5sc(N6CCN(Cc7ccccc7)CC6)nc5c4c3C2=O)NC(=O)C(C)=CC=CC(C)C(O)C(C)C(O)C(C)C(OC(C)=O)C1C (centres unmarked) [Example 1d, 2'(4"-phenylmethyl-1"-piperazinyl) rifamycin P]	32 µg/mL (≈ 35 µM)	0.064 µg/mL (≈ 0.0701 µM)	32 µg/mL (≈ 35 µM)	4 ng/mL (≈ 0.00438 µM)	64 µg/mL (≈ 70.1 µM)	1 µg/mL (≈ 1.1 µM)			16 µg/mL (≈ 17.5 µM)	0.064 µg/mL (≈ 0.0701 µM)	0.125 µg/mL (≈ 0.137 µM)	> 128 µg/mL	0.008 µg/mL (≈ 0.00876 µM)	0.016 µg/mL (≈ 0.0175 µM)						
